According to patent US20260083865A1, “PROSTATE SPECIFIC MEMBRANE ANTIGEN (PSMA) LIGANDS AND USE THEREOF” (priority 2022, published 2026):
Read-outs that look alike come from different tables or passages of the source. Values belong to the molecule of their own block, whether it stands above or below them. Numbered stars: 1 amine (or outer) side, 2 acyl side, 3 side chain; on linkers, the order of the positions; unused ones are H or OH. Bridge positions count the residues as written; N and C are the ends. Square brackets hold non-standard residues; d marks the D form. Peptide text beside a SMILES is read from it. * marks the point of attachment. NH(CH2)5NHDOTA = O=C(O)CN1CCN(CC(=O)O)CCN(CC(=O)NCCCCCN*)CCN(CC(=O)O)CC1; DOTA = O=C(O)CN1CCN(CC(=O)O)CCN(CC(=O)*)CCN(CC(=O)O)CC1; Phe(3-Cl) = N[C@@H](Cc1cccc(Cl)c1)C(=O)O; Phe(4-Cl) = N[C@@H](Cc1ccc(Cl)cc1)C(=O)O; Arg(Me) = CNC(=N)NCCC[C@H](N)C(=O)O; X1 = O=C(CC1CCN([*:1])CC1)[*:2]; Cit = NC(=O)NCCC[C@H](N)C(=O)O; Lys(Me) = CNCCCC[C@H](N)C(=O)O; Tle = CC(C)(C)[C@H](N)C(=O)O; αMeP = C[C@@]1(C(=O)O)CCCN1; Aib = CC(C)(N)C(=O)O; βAla = NCCC(=O)O

Experiments:
[1] = target: T1, PSMA-expressing C4-2 cells (Homo sapiens, UniProt Q04609); assay: FACS binding assay (competition with 50 nM PSM-0183); conditions: for IC50: read-out: pIC50 [C4-2] CAT (converted)
T1 construct: PSMA-expressing C4-2 cells (ATCC, Cat. No. CRL-3314) were cultured in RPMI-1640; host or cells: C4-2 cells
Outline: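 C4-2 cells were incubated 1 h at 4 °C with 50 nM AF488-labelled peptide PSM-0183 plus increasing test compound concentrations, then washed twice in ice-cold buffer. Median fluorescence in the AF488 channel was read by flow cytometry. IC50/pIC50 was derived by 4PL fitting of MFI versus concentration.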

[2] = target: T2, Fc-fusion protein of human PSMA (hPSMA-Fc) (Homo sapiens, UniProt Q04609); assay: Surface plasmon resonance assay (Biacore T200, single cycle kinetic); type: binding; conditions: hPSMA-Fc, 25° C.; for Kd: read-out: pKD CAT (converted)
T2 construct: purchased Acro Biosystems PSA-H5264
Outline: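 hPSMA-Fc was captured (~1000 RU) on an Fc-binding-peptide CM5 chip, and compounds were run in single cycle kinetic mode at 25° C in HBST with 0.1% DMSO. Double-blank-corrected sensorgrams were fitted to a 1:1 Langmuir model to give KD, reported as pKD.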

[3] = pIC50 category of FACS binding, C4-2 cells
[4] = pKD category for PSMA SPR activity assay
[5] = FACS binding, C4-2 cells, competition with 50 nM PSM-0183, category
[6] = SPR, single cycle kinetic, category
[7] = FACS binding, PSMA-expressing C4-2 cells, pIC50 category

T1 sequence (Q04609 whole entry): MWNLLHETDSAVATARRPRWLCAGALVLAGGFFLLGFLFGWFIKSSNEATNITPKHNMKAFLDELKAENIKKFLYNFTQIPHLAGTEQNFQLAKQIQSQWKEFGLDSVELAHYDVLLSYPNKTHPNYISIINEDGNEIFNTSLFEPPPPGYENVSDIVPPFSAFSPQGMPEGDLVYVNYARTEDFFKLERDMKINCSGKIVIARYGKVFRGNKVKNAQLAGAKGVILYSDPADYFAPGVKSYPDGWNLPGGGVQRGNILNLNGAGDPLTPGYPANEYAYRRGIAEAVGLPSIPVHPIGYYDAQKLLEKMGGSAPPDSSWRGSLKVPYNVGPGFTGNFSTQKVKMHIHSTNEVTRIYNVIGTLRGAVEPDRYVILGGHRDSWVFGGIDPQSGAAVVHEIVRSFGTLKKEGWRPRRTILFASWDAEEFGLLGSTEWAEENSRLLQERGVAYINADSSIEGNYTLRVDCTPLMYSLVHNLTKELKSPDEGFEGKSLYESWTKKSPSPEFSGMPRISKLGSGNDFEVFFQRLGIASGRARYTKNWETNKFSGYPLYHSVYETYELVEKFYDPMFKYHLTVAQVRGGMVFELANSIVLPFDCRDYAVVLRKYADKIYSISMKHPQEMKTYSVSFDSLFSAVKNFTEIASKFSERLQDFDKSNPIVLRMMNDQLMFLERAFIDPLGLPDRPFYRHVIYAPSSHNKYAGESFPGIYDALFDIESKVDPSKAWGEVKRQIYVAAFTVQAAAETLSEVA
T2 sequence (Q04609 44-750 limits assumed): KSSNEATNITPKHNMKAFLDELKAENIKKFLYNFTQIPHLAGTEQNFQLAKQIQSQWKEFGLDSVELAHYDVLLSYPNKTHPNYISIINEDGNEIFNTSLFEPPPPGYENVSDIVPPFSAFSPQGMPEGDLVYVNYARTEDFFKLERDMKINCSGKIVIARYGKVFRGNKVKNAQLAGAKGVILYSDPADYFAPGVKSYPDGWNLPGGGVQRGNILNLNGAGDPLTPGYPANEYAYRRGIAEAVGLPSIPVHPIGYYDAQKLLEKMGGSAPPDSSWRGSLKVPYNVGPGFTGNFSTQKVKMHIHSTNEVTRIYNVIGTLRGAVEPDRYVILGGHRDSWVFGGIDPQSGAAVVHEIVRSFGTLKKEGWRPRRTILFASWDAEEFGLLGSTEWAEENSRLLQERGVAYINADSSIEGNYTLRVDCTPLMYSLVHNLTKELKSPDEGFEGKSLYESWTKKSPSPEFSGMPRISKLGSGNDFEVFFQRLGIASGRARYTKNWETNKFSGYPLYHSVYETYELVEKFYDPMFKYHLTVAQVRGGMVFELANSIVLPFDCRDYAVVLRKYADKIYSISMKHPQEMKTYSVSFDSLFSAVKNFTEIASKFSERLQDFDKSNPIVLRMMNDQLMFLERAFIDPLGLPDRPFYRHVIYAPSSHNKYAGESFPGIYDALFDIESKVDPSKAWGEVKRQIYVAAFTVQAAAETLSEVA

IC50 [1, 3]: < 200 nM
Kd [2, 4]: < 12.6 nM
Molecule: CC(=O)N[C@H](C(=O)NC(C)(C)C(=O)N[C@@H](Cc1ccc(Cl)cc1)C(=O)N[C@H]1CSSC[C@@H](C(=O)N[C@H](C(=O)N[C@H](C(=O)O)[C@@H](C)O)C(C)(C)C)NC(=O)[C@H](CC(N)=O)NC(=O)C(C)(C)NC(=O)[C@H](CCCNC(=N)N)NC(=O)[C@H](CCCCN)NC1=O)[C@@H](C)O [PSM-0493, Ac-Thr-Aib-Pcf-[Cys-Lys-Arg-Aib-Asn-Cys]-Tle-Thr-OH] (Ac-T[Aib][Phe(4-Cl)]CKR[Aib]NC[Tle]T-OH; disulfide 4-9)

pIC50 [C4-2] CAT [1, 3]: A (pIC50 values >6.7)
pKD CAT [2, 4]: A (pKD values >7.9)
Molecule: Ac-Thr-Aib-Phe-[Cys-Lys-Arg-Aib-Asn-Cys]-Tle-Thr-Cmp-lys (InDOTA)-NH2 [PSM-0440]

IC50 [1, 5]: < 200 nM
Kd [2, 6]: < 12.6 nM
Molecule: CC(=O)N[C@H](C(=O)NC(C)(C)C(=O)N[C@@H](Cc1ccccc1)C(=O)N[C@H]1CSSC[C@@H](C(=O)N[C@H](C(=O)N[C@H](C(N)=O)[C@@H](C)O)C(C)(C)C)NC(=O)[C@H](CC(N)=O)NC(=O)[C@]2(C)CCCN2C(=O)[C@H](CCCNC(=N)N)NC(=O)[C@H](CCCCN)NC1=O)[C@@H](C)O [PSM-0233, Ac-Thr-Aib-Phe-[Cys-Lys-Arg-Pam-Asn-Cys]-Tle-Thr-NHZ] (Ac-T[Aib]FCKR[αMeP]NC[Tle]T-NH2; disulfide 4-9)

IC50 [1, 3]: < 200 nM
Kd [2, 4]: 12.6 to 126 nM
Molecule: CC(=O)N[C@H](C(=O)NC(C)(C)C(=O)N[C@@H](Cc1ccc(Cl)cc1)C(=O)N[C@H]1CSSC[C@@H](C(=O)N[C@H](C(=O)N[C@H](C(N)=O)[C@@H](C)O)C(C)(C)C)NC(=O)[C@H](CCC(=O)O)NC(=O)C(C)(C)NC(=O)[C@H](CCCNC(N)=O)NC(=O)[C@H](CCCCN)NC1=O)[C@@H](C)O [PSM-0496, Ac-Thr-Aib-Pcf-[Cys-Lys-Cit-Aib-Glu-Cys]-Tle-Thr-NH2] (Ac-T[Aib][Phe(4-Cl)]CK[Cit][Aib]EC[Tle]T-NH2; disulfide 4-9)

IC50 [1, 7]: < 200 nM
Kd ([2]; PSMA SPR assay, pKD category): 12.6 to 126 nM
Molecule: CCCC[C@H](NC(=O)[C@@H]1CSSC[C@H](NC(=O)[C@H](Cc2ccccc2)NC(=O)[C@H](C)NC(=O)[C@@H](NC(C)=O)[C@@H](C)O)C(=O)N[C@@H](CCCCN)C(=O)N[C@@H](CCCNC(=N)N)C(=O)N[C@@H](C)C(=O)N[C@@H](CC(N)=O)C(=O)N1)C(=O)N[C@H](C(=O)N[C@@H](CC(=O)O)C(N)=O)[C@@H](C)O [PSM-0287, Ac-Thr-Ala-Phe-[Cys-Lys-Arg-Ala-Asn-Cys]-Nle-Thr-Asp-NH2]

IC50 [1, 3]: < 200 nM
Kd [2, 4]: < 12.6 nM
Molecule: CC(=O)N[C@H](C(=O)NC(C)(C)C(=O)N[C@@H](Cc1ccccc1)C(=O)N[C@H]1CSSC[C@@H](C(=O)N[C@H](C(=O)N[C@H](C(=O)NCCCCCNC(=O)CN2CCN(CC(=O)O)CCN(CC(=O)O)CCN(CC(=O)O)CC2)[C@@H](C)O)C(C)(C)C)NC(=O)[C@H](CC(N)=O)NC(=O)C(C)(C)NC(=O)[C@H](CCCNC(=N)N)NC(=O)[C@H](CCCCN)NC1=O)[C@@H](C)O [PSM-0391, Ac-Thr-Aib-Phe-[Cys-Lys-Arg-Aib-Asn-Cys]-Tle-Thr-Ape-DOTA] (Ac-T[Aib]FCKR[Aib]NC[Tle]T-{NH(CH2)5NHDOTA}; disulfide 4-9)

IC50 [1, 7]: < 200 nM
Kd ([2]; PSMA SPR assay, pKD category): 12.6 to 126 nM
Molecule: CNCCCC[C@@H]1NC(=O)[C@@H](NC(=O)[C@H](Cc2cccc(Cl)c2)NC(=O)C(C)(C)NC(=O)[C@@H](NC(=O)CC2CCN(C(=O)CN3CCN(CC(=O)O)CCN(CC(=O)O)CCN(CC(=O)O)CC3)CC2)[C@@H](C)O)CSSC[C@@H](C(=O)N[C@H](C(N)=O)C(C)(C)C)NC(=O)[C@H](CC(N)=O)NC(=O)C(C)(C)NC(=O)[C@H](CCCNC(=N)NC)NC1=O [PSM-0354, DOTA-Cmp-Thr-Aib-Mcf-[Cys-Lys(Me)-Arg(Me)-Aib-Asn-Cys]-Tle-NH2] ({DOTA}-[X1]T[Aib][Phe(3-Cl)]C[Lys(Me)][Arg(Me)][Aib]NC[Tle]-NH2; disulfide 5-10)

IC50 [1, 5]: < 200 nM
Kd [2, 6]: < 12.6 nM
Molecule: C[C@@H](O)[C@H](NC(=O)[C@@H](NC(=O)[C@@H]1CSSC[C@H](NC(=O)[C@H](Cc2ccccc2)NC(=O)C(C)(C)NC(=O)[C@@H](NC(=O)CCNC(=O)CN2CCN(CC(=O)O)CCN(CC(=O)O)CCN(CC(=O)O)CC2)[C@@H](C)O)C(=O)N[C@@H](CCCCN)C(=O)N[C@@H](CCCNC(=N)N)C(=O)NC(C)(C)C(=O)N[C@@H](CC(N)=O)C(=O)N1)C(C)(C)C)C(N)=O [PSM-0209, DOTA-Bal-Thr-Aib-Phe-[Cys-Lys-Arg-Aib-Asn-Cys]-Tle-Thr-NH2] ({DOTA-βAla}-T[Aib]FCKR[Aib]NC[Tle]T-NH2; disulfide 4-9)
